Data published in US20240391923A1, “METHIONINE ADENOSYLTRANSFERASE 2A INHIBITOR FOR TREATING MTAP DELETION-TYPE CANCER” (SUZHOU GENHOUSE BIO CO., LTD., priority 2022, published 2024).
Where two headings read alike, the source gives them in different places.

What was measured:
[1] = system: SDMA in HCT116-MTAP-knockout cell line; assay: Cell symmetric dimethylarginine (SDMA) test, In-cell Western, HCT116-MTAP-knockout; type: cell-based; conditions: Homo sapiens, 96 h
[2] = system: SDMA in human colon cancer cell line HCT116; assay: Cell symmetric dimethylarginine (SDMA) test, In-cell Western, HCT116 (MTAP wild-type); type: cell-based; conditions: Homo sapiens, HCT-116, 96 h
Excerpt: MAT2A catalyzes the reaction of L-methionine and ATP to generate SAM, inorganic phosphonic acid, and inorganic diphosphonic acid. SAM is an important methyl donor, and is a substrate of arginine methyltransferase 5 (PRMT5). PRMT5 catalyzes SDMA modification of multiple proteins within a cell. The intracellular SDMA modification level was detected by ICW (In-cell Western), and the inhibition of the test compound on the enzymatic activity of intracellular MAT2A was indirectly reflected.
In the present application, the human colon cancer cell line HCT116 and the corresponding HCT116-MTAP-knockout cell line were seeded into a 96-well cell culture plate at an appropriate cell density. After 24 h, the cells were treated using the test compounds diluted 1:4 fold at the highest concentration of 6 μM for 6 gradients, and a DMSO treatment group was set up separately. The cells were cultured in a 37° C./5% CO2 incubator for 4 days. To test the inhibitory activity of the test compounds against tumor cell SDMA, the medium was discarded, and the plate was washed 3 times with PBST. 4% paraformaldehyde was then used at room temperature for fixation for 20 min. The fixation solution was discarded, the plate was washed 3 times with PBST, and a special blocking solution was added to each well for blocking at room temperature for 2 h. The blocking solution was discarded. After the plate was washed 3 times with PBST, the plate was incubated with SDMA antibody at 4° C. overnight. The next day, the plate was washed 3 times with PBST. The secondary antibody and DRAQ5 were diluted to an appropriate concentration with the blocking solution, and incubated at room temperature for 2 h; the plate was washed 3 times with PBST, and the fluorescence signals at 700 nm and 800 nm were detected using a Li—COR Odyssey two-color near-infrared laser imager.
The data was then processed. After the corresponding background value was subtracted from each well, statistical analysis was performed on the 800 nm/700 nm ratio for each well, a sigmoidal dose-inhibition curve was plotted using a non-linear regression model, and IC50 values were fitted and calculated. Inhibition Rate (%)=(1−SDMA dose/SDMA DMSO control)*100. SDMA dose is the value of the drug treatment group, and SDMA DMSO control is the value of the DMSO control group.

[3] = system: HCT116-MTAP-knockout (−/−) cell strain; assay: Tumor cell proliferation inhibition assay (CellTiter-Glo), HCT116-MTAP-knockout (-/-); type: cell-based; conditions: Homo sapiens, 120 h, HCT116-MTAP-knockout (−/−) cells, 5-day treatment
Protocol: (§1) After the HCT116-MTAP-knockout (−/−) cell strain, the HCT116-MTAP wild-type(+/+)-cell strain, the DOHH-2 cell strain, or the Hut-78 cell strain was treated with the test compound for 5 days, the ATP level was measured using a CellTiter-Glo kit of Promega to evaluate the inhibition of the test compound against the growth of the tumor cell strain.
(§2) In the present application, the HCT116-MTAP-knockout (−/−) cell strain, the HCT116-MTAP wild-type (+/+)-cell strain, the DOHH-2 cell strain, or the Hut-78 cell strain was seeded into a 96-well cell culture plate at an appropriate cell density. After 24 h, the cells were treated using the test compounds diluted 1:3 fold at the highest concentration of 10 μM for 10 gradients, and a DMSO treatment group was set up separately. The cells were cultured in a 37° C./5% CO2 incubator for 5 days.

[4] = system: HCT116-MTAP wild-type (+/+)-cell strain; assay: Tumor cell proliferation inhibition assay (CellTiter-Glo), HCT116-MTAP wild-type (+/+); type: cell-based; conditions: Homo sapiens, 120 h, HCT116-MTAP wild-type (+/+) cells, 5-day treatment
Protocol: as §1, §2

[5] = molecular target: MAT2A recombinant protein (Homo sapiens, UniProt P31153); assay: MAT2A inhibitory activity (malachite green colorimetric enzyme assay); type: biochemical
Sequence of MAT2A recombinant protein (P31153 whole entry): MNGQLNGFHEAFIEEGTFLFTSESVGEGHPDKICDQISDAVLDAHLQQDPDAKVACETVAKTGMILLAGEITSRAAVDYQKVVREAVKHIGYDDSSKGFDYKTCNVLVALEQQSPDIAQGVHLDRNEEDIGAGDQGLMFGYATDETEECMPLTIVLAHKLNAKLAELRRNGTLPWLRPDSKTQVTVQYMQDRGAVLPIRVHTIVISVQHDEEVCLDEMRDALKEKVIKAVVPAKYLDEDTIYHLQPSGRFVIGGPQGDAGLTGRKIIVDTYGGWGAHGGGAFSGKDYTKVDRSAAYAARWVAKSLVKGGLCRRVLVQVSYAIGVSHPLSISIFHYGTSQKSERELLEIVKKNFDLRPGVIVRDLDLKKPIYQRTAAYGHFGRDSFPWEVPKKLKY
Excerpt: MAT2A catalyzes the reaction of L-methionine and ATP to generate S-adenosylmethionine (SAM), inorganic phosphonic acid, and inorganic diphosphonic acid. Malachite green reacts with inorganic phosphonic acid to generate a green product, and the enzyme activity of MAT2A can be indirectly reflected by detecting the content of the inorganic phosphonic acid in a sample.
The test compounds were formulated using DMSO and diluted 1:3 diluted through 10 concentration points to give a final starting concentration in the reaction system of 1000 nM. The test compounds at different concentrations described above were transferred to a 384-well plate. Experimental buffer (50 mM HEPES pH 7.5, 50 mM KCl, 10 mM MgCl2, 10 mM DTT) was prepared. 2×MAT2A recombinant protein was prepared using the buffer and added to a 384-well plate. A mixed solution of 2×L-methionine and ATP was prepared using the buffer, and added to a 384-well plate. The enzymatic reaction was started, and the reaction was carried out at room temperature for 60 min. 20 μL of a colorimetric detection reagent was added to the above system, and incubated at room temperature for 15 min. The absorbance at 630 nm was measured. The inhibition rate of the compound on the enzyme activity was calculated, and the inhibition rate value and the logarithm value of the compound concentration were fitted using non-linear regression (dose response-variable slope) to give the IC50 value of the test compound.

[6] = IC50 score class, read-out: Cell 96 h SDMA Inhibition (HCT116-MTAP−/−) (score)
[7] = read-out: Cell 96 h SDMA Inhibition (HCT116-MTAP−/−)
[8] = IC50 score class, read-out: Cell 96 h SDMA Inhibition (HCT116-MTAP+/+) (score)
[9] = read-out: Cell 96 h SDMA inhibition (HCT116-MTAP+/+)
[10] = IC50 score, read-out: Tumor cell 5-day relative growth inhibition (HCT116-MTAP−/−) (nM), score
[11] = IC50 value, read-out: Tumor cell 5-day relative growth inhibition (HCT116-MTAP−/−)
[12] = IC50 score, read-out: Tumor cell 5-day relative growth inhibition (HCT116-MTAP+/+) (nM), score
[13] = IC50 value, read-out: Tumor cell 5-day relative growth inhibition (HCT116-MTAP+/+)
[14] = IC50 score class, read-out: MAT2A Inhibition (score)

IC50 [1, 6] [nM]	IC50 [1, 7] [nM]	IC50 [2, 8] [nM]	IC50 [2, 9] [nM]	IC50 [3, 10] [nM]	IC50 [3, 11] [nM]	IC50 [4, 12] [nM]	IC50 [4, 13] [nM]	IC50 [5, 14] [nM]	IC50 ([5]; read-out: MAT2A Inhibition) [nM]	SMILES
< 200	20	> 3000	> 10000	< 500	223	≥ 2000	> 10000			Cn1cc2c(n1)c(=O)n(-c1cccnc1C(F)(F)F)c1cc(Cl)c(F)cc21 (single isomer, unassigned) [Compound B389]
200 to 1000	213	> 3000	> 3000	< 500	41.4	≥ 2000	> 2000	< 100	45.1	Cn1cc2c(n1)c(=O)n(-c1cccnc1C(F)(F)F)c1cc(Cl)ccc21 [Compound B68]
200 to 1000	218	> 3000	> 3000	< 500	81.7	≥ 2000	23300			Cn1cc2c(n1)c(=O)n(-c1cccnc1C(F)(F)F)c1nc(C(F)(F)F)ccc21 [Compound B80]
< 200	11	> 3000	> 10000	< 500	50	< 500	477	< 100	14.7	O=c1c2n[nH]cc2c2ccc(C(F)(F)F)nc2n1-c1cccc2[nH]ncc12 [Compound B239]
200 to 1000	110	> 3000	3970	< 500	299	500 to 2000	939	< 100	28.1	O=c1c2nn(C3CC3)cc2c2ccc(C(F)(F)F)nc2n1-c1cccc2[nH]ncc12 [Compound B250]
200 to 1000	222	> 3000	3440	500 to 2000	1160	≥ 2000	12800	< 100	19.7	O=c1c2nn(C(F)F)cc2c2ccc(C(F)(F)F)nc2n1-c1cccnc1 [Compound B255]
< 200	3.7	200 to 1000	687	< 500	21	< 500	173	< 100	9.3	O=c1c2n[nH]cc2c2cc(F)c(Cl)cc2n1-c1cccc2[nH]ncc12 [Compound B263]
1000 to 3000	1240	> 3000	> 10000	≥ 2000	3650	≥ 2000	5240	< 100	81	CN1CCN(c2ccc(Cn3cc4c(n3)c(=O)n(-c3cccc5[nH]ncc35)c3cc(Cl)c(F)cc43)cn2)CC1 [Compound B268]
200 to 1000	517			500 to 2000	1400	≥ 2000	7600	< 100	83	Cn1cc2c(n1)c(=O)n(-c1cccc3[nH]ncc13)c1cc(Cl)cnc21 [Compound B273]
200 to 1000	147	200 to 1000	240	< 500	72.5	≥ 2000	> 10000	< 100	9	Cn1cc2c(n1)c(=O)n(-c1cccc3[nH]ncc13)c1nc(C(F)(F)F)c(F)cc21 [Compound B274]
< 200	61			< 500	327	500 to 2000	875	< 100	83	Cc1n[nH]c2cccc(-n3c(=O)c4nn(C)cc4c4ccc(Cl)cc43)c12 [Compound B277]
< 200	98.5	> 3000	> 10000	< 500	284	500 to 2000	550	< 100	100	CN1CCN(c2nccc(Cn3cc4c(n3)c(=O)n(-c3cccc5[nH]ncc35)c3cc(Cl)c(F)cc43)n2)CC1 [Compound B333]
< 200	18.7	> 3000	> 10000	< 500	145	≥ 2000	9700	< 100	12	Cn1cnc2c(=O)n(-c3cccnc3C3CC3)c3cc(Cl)c(F)cc3c21 [Compound B336]
		> 3000	> 10000	500 to 2000	579	≥ 2000	> 10000			O=c1c2nn(C(F)F)cc2c2cc(F)c(Cl)cc2n1-c1cccnc1C1CC1 [Compound B337]
< 200	10	> 3000	> 10000	500 to 2000	765	≥ 2000	> 10000	< 100	26	Cn1cnc2c(=O)n(-c3cccnc3C(F)(F)F)c3cc(Cl)c(F)cc3c21 [Compound B351]
< 200	6.2	> 3000	> 10000	< 500	87	≥ 2000	> 10000	< 100	9.6	Cn1cc2c(n1)c(=O)n(-c1cccnc1C1CC1)c1nc(C3CC3)c(F)cc21 [Compound B359]
200 to 1000	554	> 3000	> 10000	≥ 2000	> 10000	≥ 2000	> 10000	< 100	58	Cn1cc2c(n1)c(=O)n(-c1cccc3ccccc13)c1cc(Cl)c(F)cc21 [Compound B370]
